Measurements taken from ChEMBL document CHEMBL1201862, “PubChem BioAssay data set” (2004).
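Results reflect a 48-hour exposure of cells in 96-well plates to compound at five concentrations. GI50 is the concentration that inhibits growth by half.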 The source made the active and inactive calls. Cut-off read from the data, not from the text of the source: active = GI50 up to about 1.1 µM and inactive = higher.

How the values were obtained:
Experiment in all cases: NCI-60 cell line screen, 48 h
MDA-MB-231 = system: MDA-MB-231
NCI-H226 = system: NCI-H226
MDA-MB-435 = system: MDA-MB-435
CAKI-1 = system: CAKI-1
HCC 2998 = system: HCC 2998
Malme-3M = system: Malme-3M
HOP-62 = system: HOP-62
RPMI-8226 = system: RPMI-8226
HOP-92 = system: HOP-92
SK-OV-3 = system: SK-OV-3
786-0 = system: 786-0
SK-MEL-28 = system: SK-MEL-28
M14 = system: M14
PC-3 = system: PC-3
U-251 = system: U-251
A549 = system: A549
NCI/ADR-RES = system: NCI/ADR-RES
COLO 205 = system: COLO 205
CCRF-CEM = system: CCRF-CEM
MDA-N = system: MDA-N
SF-268 = system: SF-268
SN12C = system: SN12C
NCI-H23 = system: NCI-H23
Hs-578T = system: Hs-578T
LOX IMVI = system: LOX IMVI
T47D = system: T47D
HT-29 = system: HT-29
NCI-H522 = system: NCI-H522
UO-31 = system: UO-31
BT-549 = system: BT-549
SK-MEL-5 = system: SK-MEL-5
SNB-75 = system: SNB-75
SF-539 = system: SF-539
SF-295 = system: SF-295
UACC-257 = system: UACC-257
OVCAR-8 = system: OVCAR-8
SW-620 = system: SW-620
KM12 = system: KM12
TK-10 = system: TK-10
MCF7 = system: MCF7
A498 = system: A498
OVCAR-3 = system: OVCAR-3
UACC-62 = system: UACC-62
SNB-19 = system: SNB-19
RXF 393 = system: RXF 393
HCT-15 = system: HCT-15
NCI-H460 = system: NCI-H460
SK-MEL-2 = system: SK-MEL-2
ACHN = system: ACHN
HCT-116 = system: HCT-116
DU-145 = system: DU-145
EKVX = system: EKVX
HL-60 = system: HL-60
OVCAR-5 = system: OVCAR-5
OVCAR-4 = system: OVCAR-4
SR = system: SR
IGROV-1 = system: IGROV-1
MOLT-4 = system: MOLT-4
K562 = system: K562

Measured: GI50

Nc1ccc2c(c1)C(=O)c1c(F)cccc1-2
39.3 µM: HCT-15
inactive: MDA-MB-231 45.6 µM | NCI-H226 27.7 µM | MDA-MB-435 > 100 µM | CAKI-1 23.6 µM | HCC 2998 40 µM | Malme-3M 38.4 µM | HOP-62 30.3 µM | RPMI-8226 20.4 µM | HOP-92 15.5 µM | SK-OV-3 85.7 µM | 786-0 29.4 µM | SK-MEL-28 34.2 µM | M14 50.4 µM | PC-3 31.2 µM | U-251 53.1 µM | A549 96.6 µM | NCI/ADR-RES 35.6 µM | COLO 205 44.3 µM | CCRF-CEM 15 µM | MDA-N 93.3 µM | SF-268 17.9 µM | SN12C 39.1 µM | NCI-H23 61.8 µM | Hs-578T 27.9 µM | LOX IMVI 41.6 µM | T47D 63.8 µM | HT-29 27.7 µM | NCI-H522 34.5 µM | UO-31 20.8 µM | BT-549 39.3 µM | SK-MEL-5 25.5 µM | SNB-75 10.4 µM | SF-539 24.5 µM | SF-295 46 µM | UACC-257 > 100 µM | OVCAR-8 43.1 µM | SW-620 34.5 µM | KM12 40.5 µM | TK-10 47.2 µM | MCF7 10.1 µM | A498 > 100 µM | OVCAR-3 25.9 µM | UACC-62 32 µM | SNB-19 53.1 µM | RXF 393 42.2 µM | NCI-H460 31 µM | SK-MEL-2 81.7 µM | ACHN 34.1 µM | HCT-116 30.5 µM | DU-145 45 µM
active: EKVX 0.656 µM

Cc1cc(O)c2c(c1)C(C1c3cccc(O)c3C(=O)c3c(O)cc(C)cc31)c1cccc(O)c1C2=O (stereo not drawn)
inactive: CAKI-1 2.86 µM
active: MDA-MB-231 0.405 µM | NCI-H226 0.605 µM | MDA-MB-435 0.34 µM | HCC 2998 1.1 µM | Malme-3M 0.329 µM | HOP-62 0.432 µM | RPMI-8226 0.158 µM | HOP-92 0.258 µM | SK-OV-3 0.356 µM | 786-0 0.466 µM | HL-60 0.879 µM | SK-MEL-28 0.394 µM | OVCAR-5 0.766 µM | M14 0.327 µM | OVCAR-4 0.26 µM | PC-3 0.105 µM | U-251 0.31 µM | A549 0.239 µM | NCI/ADR-RES 0.319 µM | COLO 205 0.177 µM | CCRF-CEM 0.906 µM | MDA-N 0.705 µM | SF-268 0.311 µM | SR 0.345 µM | SN12C 0.322 µM | NCI-H23 0.37 µM | Hs-578T 0.175 µM | LOX IMVI 0.354 µM | T47D 0.631 µM | HT-29 0.378 µM | NCI-H522 0.417 µM | UO-31 0.306 µM | BT-549 0.292 µM | SK-MEL-5 0.212 µM | SNB-75 0.243 µM | SF-539 0.21 µM | IGROV-1 0.378 µM | SF-295 0.286 µM | UACC-257 0.3 µM | OVCAR-8 0.335 µM | SW-620 0.448 µM | KM12 0.166 µM | TK-10 0.598 µM | MCF7 0.331 µM | OVCAR-3 0.25 µM | UACC-62 0.269 µM | MOLT-4 0.615 µM | K562 1.02 µM | SNB-19 0.239 µM | RXF 393 0.22 µM | NCI-H460 0.198 µM | SK-MEL-2 0.294 µM | ACHN 0.337 µM | HCT-116 0.314 µM | DU-145 0.4 µM | EKVX 0.417 µM
0.317 µM: HCT-15

ON=C1CCCCC(=NO)CCCC1
> 100 µM: HCT-15
inactive: MDA-MB-231 > 100 µM | NCI-H226 > 100 µM | MDA-MB-435 > 100 µM | CAKI-1 > 100 µM | HCC 2998 > 100 µM | Malme-3M > 100 µM | RPMI-8226 > 100 µM | HOP-92 > 100 µM | SK-OV-3 > 100 µM | 786-0 > 100 µM | SK-MEL-28 > 100 µM | OVCAR-4 > 100 µM | PC-3 > 100 µM | U-251 > 100 µM | A549 > 100 µM | NCI/ADR-RES > 100 µM | COLO 205 > 100 µM | MDA-N > 100 µM | SF-268 > 100 µM | SN12C > 100 µM | NCI-H23 > 100 µM | Hs-578T > 100 µM | LOX IMVI > 100 µM | T47D > 100 µM | HT-29 > 100 µM | NCI-H522 > 100 µM | UO-31 > 100 µM | BT-549 > 100 µM | SK-MEL-5 > 100 µM | SNB-75 > 100 µM | SF-539 > 100 µM | SF-295 > 100 µM | UACC-257 > 100 µM | OVCAR-8 > 100 µM | SW-620 > 100 µM | KM12 > 100 µM | TK-10 > 100 µM | MCF7 > 100 µM | A498 > 100 µM | UACC-62 > 100 µM | K562 > 100 µM | SNB-19 > 100 µM | NCI-H460 > 100 µM | SK-MEL-2 > 100 µM | ACHN > 100 µM | HCT-116 > 100 µM | DU-145 > 100 µM
